For one assay, the system named is L1210/0. Description: inhibition of tumour cell proliferation. Conditions: Mus musculus, mean of at least two experiments, read-out: ID50 (dose d'inhibition du développement cellulaire de 50 %). The assay is classed as cell-based, murine.
Another assay deals with L1210/BdUrd. Nature of the assay: inhibition of tumour cell proliferation. It is filed as cell-based, murine. Conditions: Mus musculus; L1210/BdUrd (résistant à BdUrd); mean of at least two experiments; read-out: ID50 (dose d'inhibition du développement cellulaire de 50 %).
The next assay concerns CEM. Nature of the assay: inhibition of tumour cell proliferation. It is filed as cell-based, humaine. Conditions: Homo sapiens, CCRF-CEM, mean of at least two experiments, read-out: ID50 (dose d'inhibition du développement cellulaire de 50 %).
The subject of a further assay is MT4. Description: inhibition of tumour cell proliferation. To be noted: Homo sapiens, mean of at least two experiments, read-out: ID50 (dose d'inhibition du développement cellulaire de 50 %). The assay is classed as cell-based, humaine.
The test system of another assay is MOLT/4F. Nature of the assay: inhibition of tumour cell proliferation. To be noted: Homo sapiens, mean of at least two experiments, read-out: ID50 (dose d'inhibition du développement cellulaire de 50 %). The assay is classed as cell-based, humaine.
Assay [1] has as its target T1, réverse transcriptase de HIV1 (Human immunodeficiency virus type 1 group M subtype B, UniProt P03366).
T1 construct: La réverse transcriptase de HIV1 ci-après abrégé RT a été partiellement purifiée; endogenous in cells; host or cells: HUT-78/HTLV-IIIb producer cell line; virus particles pelleted at 100,000 g and solubilised with Triton X-100
Nature of the assay: inhibition of exogenous reverse transcription, poly(A) template with oligo(dT)12-18 primer (Example 2). It is filed as biochemical. The source says:
Dans les exemples qui vont suivre les α oligodésoxynucléotides α-dT, α-dT₂, α-dT₄, α-dT₆, α-dT₈, α-dT₁₀, α-dT₁₂, α-dT₁₄, α-dT₁₆ ont été dissous dans de l'eau stérilisée pour les essais de réverse transcriptase. Les concentrations ont été déterminées par spectrophotométrie (coefficient d'absorption molaire : 8880, 17760, 35520, 61800, 70000, 83300, 88800, 109800 et 138400, respectivement). Les α oligodésoxynucléotides α-dC₂₀ et α-dC₃₀ ont été dissous dans de l'eau distillée et les concentrations ont été déterminées également par spectrophotométrie (coefficient d'absorption molaire 178000 et 267000, respectivement). Les solutions étaient conservées à -20° C jusqu'à leur utilisation.
Les réactions de transcription inverse ont été effectuées avec des virus HIV dont partiellement purifiées. Les fluides de culture provenant d'une lignée cellulaire produisant un HUT-78/HTLV-IIIb ont été purifiés par centrifugation à basse vitesse. Des particules virales ont été sédimentées par centrifugation à 100.000 g pendant 30 minutes. Le Pellet viral a été incubé sur glace pendant 30 minutes avec un tampon de solubilisation contenant du triton X-100 0,1 % du dithiothréitol 1mM et du glycérol 50 % et conservé dans des aliquots à -70°C jusqu'à utilisation. Les effets inhibiteurs des α oligodésoxynucléotides contenant des bases thymine sur la réaction de transcription inverse ont été effectués avec une matrice polyrA exogène et un α oligodT₁₂₋₁₈ . Le mélange de réaction (50 µl) contenait du Tris-HCl 50 mM (pH 7,8), du dithiothréitol 5mM, du glutathione 300 µM, du EGTA 500 µM et du KCl 150 mM, du MgCl₂ 5 mM, et 1,25 µg de sérum albumine de bovin, et 1 µM de (méthyl-³H) dTTP (radioactivité spécifique 30 Ci/mmol.) (5 µCi), le mélange comportait également 4,4 µg/ml de polyrA, 7,5 µM d'oligodT et du triton X-100 0,03 %, et 10 µl de solution de composé,(contenant des concentrations variables des composés) et 10 µl de préparation de réverse transcriptase. Les effets inhibiteurs sur la transcription de HIV à l'aide de α-dC₂₀ et α-dC₃₀ ont été déterminés en utilisant une matrice exogène polyI (50 µg/ml) tandis que le mélange oligodC₁₂₋₁₈ servait d'amorce (0,44 U/ml). Le mélange de réaction avec le système polyI.oligodC contenait des réactifs décrits pour le système polyrA. oligodT mais les concentrations de MgCl et KCI ont été ajustées à 2,5 mM et […], respectivement, tandis que le dTTP trifié a été substitué par le (méthyl-³H)dCTP (radioactivité spécifique 19,5 Ci/mmol) (5 µCi). Les mélanges de réactions ont été incubés à 37°C pendant 0 à 60 minutes à quel moment 100 µl d'ADN de thymus de veau (150 µg/ml), 2 ml de Na₄P₂O₇ (0,1 M dans HCL 1 N) et 2 ml de TCA (10 % v/v) ont été ajoutés. Les solutions ont été gardées sur glace pendant au moins 30 minutes, après lesquelles la matière acide insoluble a été lavée et analysée quant à sa radioactivité.
La réverse transcriptase de HIV1 ci-après abrégé RT a été partiellement purifiée et les oligomères α ont été étudiés en fonction de leur faculté à servir d'amorce sur une matrice poly(A) dans une réaction de transcription inverse exogène.
Ces pourcentages ont été calculés de la même manière que précédemment par mesure de radioactivité, laquelle indique la quantité d'incorporation de méthyl ³H dTTP (valeurs en Cpm).

8 molecules from patent EP0395672B1, “ANTIVIRAL APPLICATION OF ALPHA OLIGONUCLEOTIDES” (CENTRE NATIONAL DE LA RECHERCHE SCIENTIFIQUE, priority 1987, dated 1989) can be followed below.

Some results are limits rather than exact numbers.

As for `Nc1nc2c(ncn2[C@@H]2C[C@H](O)[C@@H](CO)O2)c(=O)[nH]1` [α-2'-dGuo], the IC50 with L1210/0, in the assay with L1210/BdUrd, in the assay on CEM, in the assay on MT4 and with MOLT/4F was greater than 500 µM throughout.
In the case of `Nc1ncnc2c1ncn2[C@@H]1C[C@H](O)[C@@H](CO)O1` [α-2'-dAdo], the IC50 with L1210/0, with L1210/BdUrd, with CEM, with MT4 and in the assay on MOLT/4F was greater than 500 µM throughout.
`Nc1nc2c(ncn2[C@H]2C[C@H](O)[C@@H](CO)O2)c(=O)[nH]1` [β dGuo, reference compound]: the IC50 was 58.2 ± 10.9 µM with L1210/0; 55.5 ± 6.8 µM in the assay with L1210/BdUrd; 22.1 ± 0.6 µM in the assay on CEM; 55.3 ± 5.3 µM with MT4; 79.5 ± 9.2 µM in the assay on MOLT/4F.
`Nc1ncnc2c1ncn2[C@H]1C[C@H](O)[C@@H](CO)O1` [β dAdo, reference compound]: the IC50 was greater than 500 µM in the assay on L1210/0; greater than 500 µM in the assay on L1210/BdUrd; 189 ± 19 µM with CEM; greater than 500 µM with MT4; greater than 500 µM in the assay on MOLT/4F.
`Cc1cn([C@H]2C[C@H](O)[C@@H](CO)O2)c(=O)[nH]c1=O` [β dThd, reference compound]: the IC50 with L1210/0 was 29 ± 1.9 µM; with L1210/BdUrd, greater than 500 µM; with CEM, 24.7 ± 3.42 µM; in the assay with MT4 it was 191 ± 7 µM; in the assay with MOLT/4F, greater than 500 µM.
Take `Cc1cn([C@@H]2C[C@H](O)[C@@H](CO)O2)c(=O)[nH]c1=O` [α-2'-dThd]: the IC50 with L1210/0, with L1210/BdUrd, in the assay with CEM, in the assay with MT4 and in the assay with MOLT/4F was greater than 500 µM each time.
For the molecule `Cc1cn([C@@H]2C[C@H](O)[C@@H](CO)O2)c(=O)[nH]c1=O` [αdT], the “pourcentages d'inhibitions de la réaction exogène de transcription inverse” value in assay [1] (0.16 uM oligomer, 7,5 μM oligo(dT)12-18 primer) turned out to be 22%; in assay [1] (0.8 uM oligomer, 7,5 μM oligo(dT)12-18 primer), 8%; in assay [1] (4 uM oligomer, 7,5 μM oligo(dT)12-18 primer), 19%; in assay [1] (20 uM oligomer, 7,5 μM oligo(dT)12-18 primer) it was 46%; in assay [1] (100 uM oligomer, 7,5 μM oligo(dT)12-18 primer), 23%. Moreover, the EC50 in assay [1] (7,5 μM oligo(dT)12-18 primer, poly(A) template, read-out: ED50 (dose requise pour inhiber la réaction de transcription inverse de 50 %)) was greater than 100 µM. Moreover, the “inhibition de la réaction de transcription inverse” value in assay [1] (result in words, in presence of primer βdT₁₂₋₁₈) is recorded as “aucune inhibition significative”.
Turning to `Nc1ccn([C@@H]2C[C@H](O)[C@@H](CO)O2)c(=O)n1` [α-2'-dC], the IC50 in the assay with L1210/0, in the assay on L1210/BdUrd, with CEM, in the assay with MT4 and with MOLT/4F was greater than 500 µM in each case.
